Source: patent US9284318B2, “Protein kinase inhibitors” (Pharmascience, Inc., priority 2011, dated 2016)

Columns and labels:
[1] = molecular target: T1, cFMS(h) (Homo sapiens, UniProt P07333); assay: Kinase Profiler Service Assay, cFMS; type: biochemical; conditions: at 100 nM
T1 construct: purchased Millipore (Kinase Profiler Service)
Method: (§1) Selected kinase binding affinities were determined using Kinase Profiler™ Service Assay Protocols (Millipore, V53.0).

[2] = molecular target: T2, Aurora-B(h) (Homo sapiens, UniProt Q96GD4); assay: Kinase Profiler Service Assay, Aurora-B; type: biochemical; conditions: at 100 nM
T2 construct: purchased Millipore (Kinase Profiler Service)
T2 sequence (Q96GD4 whole entry): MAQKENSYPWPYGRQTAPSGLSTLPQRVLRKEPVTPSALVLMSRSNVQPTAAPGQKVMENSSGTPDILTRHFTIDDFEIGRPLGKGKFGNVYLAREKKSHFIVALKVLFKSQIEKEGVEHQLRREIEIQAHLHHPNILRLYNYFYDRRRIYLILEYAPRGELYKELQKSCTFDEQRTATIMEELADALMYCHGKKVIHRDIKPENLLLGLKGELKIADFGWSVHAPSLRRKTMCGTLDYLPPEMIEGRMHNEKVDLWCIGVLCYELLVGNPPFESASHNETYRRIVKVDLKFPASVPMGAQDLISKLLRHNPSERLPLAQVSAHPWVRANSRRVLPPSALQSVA
Method: as §1

[3] = molecular target: T3, Flt3 (h) (Homo sapiens, UniProt P36888); assay: Kinase Profiler Service Assay, Flt3; type: biochemical; conditions: at 100 nM
T3 construct: purchased Millipore (Kinase Profiler Service)
T3 sequence (P36888 27-993): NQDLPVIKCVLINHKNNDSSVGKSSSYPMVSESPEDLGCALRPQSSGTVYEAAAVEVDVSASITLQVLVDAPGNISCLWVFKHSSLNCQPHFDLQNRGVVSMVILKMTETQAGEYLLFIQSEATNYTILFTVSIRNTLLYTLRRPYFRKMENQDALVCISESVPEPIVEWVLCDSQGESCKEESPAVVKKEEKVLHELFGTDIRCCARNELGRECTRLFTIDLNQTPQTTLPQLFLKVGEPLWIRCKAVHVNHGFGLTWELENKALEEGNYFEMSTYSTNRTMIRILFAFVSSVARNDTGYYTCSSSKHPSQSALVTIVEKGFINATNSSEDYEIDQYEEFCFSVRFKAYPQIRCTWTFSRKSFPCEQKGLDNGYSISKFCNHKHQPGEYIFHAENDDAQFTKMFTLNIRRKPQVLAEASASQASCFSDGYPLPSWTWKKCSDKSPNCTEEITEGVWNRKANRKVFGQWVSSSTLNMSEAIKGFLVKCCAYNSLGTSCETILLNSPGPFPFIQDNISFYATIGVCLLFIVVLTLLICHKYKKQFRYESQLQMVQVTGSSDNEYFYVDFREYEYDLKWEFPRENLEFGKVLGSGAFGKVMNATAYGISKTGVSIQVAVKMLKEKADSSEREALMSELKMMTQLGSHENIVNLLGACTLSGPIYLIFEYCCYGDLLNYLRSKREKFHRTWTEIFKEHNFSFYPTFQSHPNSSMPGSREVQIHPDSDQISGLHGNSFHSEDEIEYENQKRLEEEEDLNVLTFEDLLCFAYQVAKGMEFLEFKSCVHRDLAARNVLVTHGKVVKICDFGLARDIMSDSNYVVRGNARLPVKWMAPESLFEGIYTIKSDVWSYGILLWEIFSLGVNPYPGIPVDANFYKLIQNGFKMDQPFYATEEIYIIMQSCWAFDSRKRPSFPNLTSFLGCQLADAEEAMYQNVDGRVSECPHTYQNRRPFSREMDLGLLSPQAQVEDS
Method: as §1

[4] = molecular target: T4, KDR(h) (Homo sapiens, UniProt P35968); assay: Kinase Profiler Service Assay, KDR; type: biochemical; conditions: at 100 nM
T4 construct: purchased Millipore (Kinase Profiler Service)
T4 sequence (P35968 20-1356): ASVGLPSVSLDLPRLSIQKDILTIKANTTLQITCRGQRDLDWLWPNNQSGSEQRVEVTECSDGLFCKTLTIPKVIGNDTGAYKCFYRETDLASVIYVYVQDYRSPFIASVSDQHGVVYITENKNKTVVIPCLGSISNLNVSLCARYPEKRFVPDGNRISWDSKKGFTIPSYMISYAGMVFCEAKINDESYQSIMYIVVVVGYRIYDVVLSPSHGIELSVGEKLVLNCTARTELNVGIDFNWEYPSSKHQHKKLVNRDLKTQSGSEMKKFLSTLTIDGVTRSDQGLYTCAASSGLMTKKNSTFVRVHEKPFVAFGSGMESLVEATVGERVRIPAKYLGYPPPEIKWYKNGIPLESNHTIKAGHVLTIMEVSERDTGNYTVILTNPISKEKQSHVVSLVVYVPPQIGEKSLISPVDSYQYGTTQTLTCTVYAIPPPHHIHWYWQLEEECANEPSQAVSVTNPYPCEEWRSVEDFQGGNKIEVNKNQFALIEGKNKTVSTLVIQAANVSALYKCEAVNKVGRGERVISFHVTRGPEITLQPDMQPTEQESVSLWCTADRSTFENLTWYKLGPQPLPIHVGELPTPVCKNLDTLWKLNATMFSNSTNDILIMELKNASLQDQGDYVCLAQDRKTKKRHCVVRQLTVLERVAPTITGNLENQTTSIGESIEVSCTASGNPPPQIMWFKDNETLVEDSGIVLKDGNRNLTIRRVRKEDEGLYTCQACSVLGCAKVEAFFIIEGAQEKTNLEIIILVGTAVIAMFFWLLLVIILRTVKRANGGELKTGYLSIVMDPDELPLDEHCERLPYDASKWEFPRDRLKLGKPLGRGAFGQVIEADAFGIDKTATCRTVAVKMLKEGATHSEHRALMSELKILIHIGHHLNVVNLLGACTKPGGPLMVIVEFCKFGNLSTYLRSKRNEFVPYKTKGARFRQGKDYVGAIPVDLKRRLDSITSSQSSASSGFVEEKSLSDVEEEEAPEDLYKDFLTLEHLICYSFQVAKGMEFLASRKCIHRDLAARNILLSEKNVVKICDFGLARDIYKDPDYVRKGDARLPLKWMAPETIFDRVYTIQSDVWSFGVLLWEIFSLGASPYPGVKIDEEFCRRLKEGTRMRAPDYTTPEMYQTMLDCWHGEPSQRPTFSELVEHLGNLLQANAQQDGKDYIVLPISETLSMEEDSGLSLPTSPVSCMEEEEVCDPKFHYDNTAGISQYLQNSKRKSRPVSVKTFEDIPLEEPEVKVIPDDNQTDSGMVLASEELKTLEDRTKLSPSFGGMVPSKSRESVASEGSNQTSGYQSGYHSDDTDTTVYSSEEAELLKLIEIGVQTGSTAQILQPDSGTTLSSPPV
Method: as §1

[5] = molecular target: T5, PDGFR-b(h) (Homo sapiens, UniProt P09619); assay: Kinase Profiler Service Assay, PDGFR-b; type: biochemical; conditions: at 100 nM
T5 construct: purchased Millipore (Kinase Profiler Service)
Method: as §1

[6] = molecular target: T6, FGFR1 (Homo sapiens, UniProt P11362); assay: Kinase Profiler Service Assay, FGFR1; type: biochemical; conditions: at 100 nM
T6 construct: purchased Millipore (Kinase Profiler Service)
T6 sequence (P11362 22-822): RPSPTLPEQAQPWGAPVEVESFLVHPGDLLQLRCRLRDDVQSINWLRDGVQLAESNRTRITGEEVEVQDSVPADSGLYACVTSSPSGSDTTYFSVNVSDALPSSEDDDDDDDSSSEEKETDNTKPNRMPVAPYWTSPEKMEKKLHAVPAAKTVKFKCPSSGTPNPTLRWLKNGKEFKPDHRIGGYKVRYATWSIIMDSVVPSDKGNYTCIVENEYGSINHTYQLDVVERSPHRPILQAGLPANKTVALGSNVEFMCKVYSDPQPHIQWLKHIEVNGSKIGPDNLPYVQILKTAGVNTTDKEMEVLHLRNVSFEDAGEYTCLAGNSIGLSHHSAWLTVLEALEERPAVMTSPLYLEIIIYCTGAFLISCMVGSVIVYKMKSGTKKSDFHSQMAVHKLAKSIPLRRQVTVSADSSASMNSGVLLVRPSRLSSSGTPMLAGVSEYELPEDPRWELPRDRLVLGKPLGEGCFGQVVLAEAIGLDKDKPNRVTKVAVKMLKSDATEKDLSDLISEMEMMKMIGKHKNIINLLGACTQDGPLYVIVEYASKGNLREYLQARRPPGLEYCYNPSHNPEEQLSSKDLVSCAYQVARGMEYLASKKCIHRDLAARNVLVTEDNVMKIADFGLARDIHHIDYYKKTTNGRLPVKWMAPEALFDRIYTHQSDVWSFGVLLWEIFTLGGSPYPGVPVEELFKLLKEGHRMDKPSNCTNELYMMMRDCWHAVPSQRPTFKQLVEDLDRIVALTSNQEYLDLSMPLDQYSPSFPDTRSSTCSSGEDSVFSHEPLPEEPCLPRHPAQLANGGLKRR
Method: as §1

[7] = molecular target: T7, Tie2 (Homo sapiens, UniProt Q02763); assay: Kinase Profiler Service Assay, Tie2; type: biochemical; conditions: at 100 nM
T7 construct: purchased Millipore (Kinase Profiler Service)
Method: as §1

[8] = molecular target: T8, FLT4 (Homo sapiens, UniProt P35916); assay: Kinase Profiler Service Assay, FLT4; type: biochemical; conditions: at 100 nM
T8 construct: purchased Millipore (Kinase Profiler Service)
Method: as §1

[9] = molecular target: T9, recombinant human colony stimulating factor 1 receptor (FMS) (Homo sapiens, UniProt P07333); assay: Biochemical cFMS (CSF1R) fluorescence polarization kinase assay; conditions: 10 μM ATP, 100 μM substrate, 60 minutes
T9 construct: containing the catalytic domain (amino acids 538-910); His tag; purchased Invitrogen; host or cells: insect cells
T9 sequence (P07333 538-910): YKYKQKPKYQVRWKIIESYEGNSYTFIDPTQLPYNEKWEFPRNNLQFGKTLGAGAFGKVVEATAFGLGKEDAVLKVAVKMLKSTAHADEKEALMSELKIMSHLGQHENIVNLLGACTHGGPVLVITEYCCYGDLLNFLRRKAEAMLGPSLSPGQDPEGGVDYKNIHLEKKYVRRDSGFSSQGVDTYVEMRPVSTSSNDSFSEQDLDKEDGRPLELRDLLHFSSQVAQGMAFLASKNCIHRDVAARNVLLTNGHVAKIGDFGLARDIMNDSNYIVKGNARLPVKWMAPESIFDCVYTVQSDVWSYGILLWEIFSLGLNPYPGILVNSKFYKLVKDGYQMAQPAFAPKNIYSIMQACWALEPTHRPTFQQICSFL
Method: Biochemical cFMS (CSF1R) Assay:
Fluorescence polarization-based kinase biochemical assays were performed in 384 well-plate format using histidine tagged recombinant human colony stimulating factor 1 receptor (FMS) supplied from Invitrogen™ (containing the catalytic domain (amino acids 538-910), expressed in insect cells and activated in vitro via auto phosphorylation) and a modified protocol of the KinEASE™ FP Fluorescein Green Assay supplied from Millipore™.
Kinase reactions were performed in 384 well plate format at room temperature for 60 minutes in presence of 100 μM substrate, 10 μM ATP and variable test article concentrations. The reaction was stopped with EDTA/KinEASE™ detection reagents and the polarization measured on a Tecan 500 instrument. From the dose-response curve obtained, the IC50 was estimated using Graph pad Prisms® using a non linear fit curve.

[10] = test system: M-NFS-60 M-CSF-dependent myeloid leukemia cells; assay: Murine M-CSF-dependent M-NFS-60 cell survival assay; type: cell-based; conditions: Mus musculus; cell survival at 72 hours, 20 ng/ml M-CSF, Cell Titer-Glo
Method: Cellular Assays: Murine M-CSF-Dependent M-NFS-60 Cell Survival Assay
Murine M-NFS-60 M-CSF-dependent myeloid leukemia cells were purchased from ATCC (CRL-1838). Cells were routinely cultured at 37° C., 5% CO2 in complete medium (RPMI supplemented with 10% FBS, 1% penicillin/streptomycin, 50 uM beta mercaptoethanol) containing 30 ng/ml recombinant murine M-CSF (Peprotech 315-02). For survival assays, cells were transferred to depleted medium (complete medium depleted of M-CSF) for 24 hours prior to initiation of each experiment. M-CSF-starved cells were harvested and re-suspended in complete medium containing 20 ng/ml M-CSF. Cells were seeded at 25,000 cells/well in 96-well plates and incubated for 1 hour at 37° C., 5% CO2. Cells were treated with 1 uM or 10 uM compound curves in triplicate and cell survival was measured 72 hours later by Cell Titer-Glo Luminescent Assay (Promega). Luminescence was read using a Tecan Infinite F200 microplate reader. EC50 values (50% survival in the presence of compound as compared to vehicle treated controls) were calculated from non-linear fit dose response compound curves using GraphPad Prism Software.

[11] = test system: MV4-11 cells; assay: Human MV4-11 biphenotypic B myelomonocytic leukemia cell survival assay; type: cell-based; conditions: cell survival at 72h, Cell Titer-Glo
Method: Human MV4-11 Biphenotypic B Myelomonocytic Leukemia Cell Survival Assay
Biphenotypic B myelomonocytic leukemia MV4-11 cells (ATCC CRL-9591) were cultured in suspension at 37° C., 5% CO2 in complete medium (RPMI supplemented with 10% FBS, 1% penicillin/streptomycin). One day prior to treatment, cells per seeded in 96-well plates at 8000 cells/well in complete medium. The following day, triplicate wells were treated with compound curves of 100, 1000 or 10,000 nM starting concentration according to compound potency. Cell survival was measured 72h later by Cell Titer-Glo Luminescent Assay (Promega). Luminescence was read using a Tecan Infinite F200 microplate reader. EC50 values (50% survival in the presence of compound as compared to vehicle treated controls) were calculated from non-linear fit dose response compound curves using CambridgeSoft BioAssay software (Perkin Elmer).

[12] = molecular target: T10, EphA2 (Homo sapiens, UniProt P29317); assay: Kinase Profiler Service Assay, EphA2; type: biochemical; conditions: at 100 nM
T10 construct: purchased Millipore (Kinase Profiler Service)
T10 sequence (P29317 24-976): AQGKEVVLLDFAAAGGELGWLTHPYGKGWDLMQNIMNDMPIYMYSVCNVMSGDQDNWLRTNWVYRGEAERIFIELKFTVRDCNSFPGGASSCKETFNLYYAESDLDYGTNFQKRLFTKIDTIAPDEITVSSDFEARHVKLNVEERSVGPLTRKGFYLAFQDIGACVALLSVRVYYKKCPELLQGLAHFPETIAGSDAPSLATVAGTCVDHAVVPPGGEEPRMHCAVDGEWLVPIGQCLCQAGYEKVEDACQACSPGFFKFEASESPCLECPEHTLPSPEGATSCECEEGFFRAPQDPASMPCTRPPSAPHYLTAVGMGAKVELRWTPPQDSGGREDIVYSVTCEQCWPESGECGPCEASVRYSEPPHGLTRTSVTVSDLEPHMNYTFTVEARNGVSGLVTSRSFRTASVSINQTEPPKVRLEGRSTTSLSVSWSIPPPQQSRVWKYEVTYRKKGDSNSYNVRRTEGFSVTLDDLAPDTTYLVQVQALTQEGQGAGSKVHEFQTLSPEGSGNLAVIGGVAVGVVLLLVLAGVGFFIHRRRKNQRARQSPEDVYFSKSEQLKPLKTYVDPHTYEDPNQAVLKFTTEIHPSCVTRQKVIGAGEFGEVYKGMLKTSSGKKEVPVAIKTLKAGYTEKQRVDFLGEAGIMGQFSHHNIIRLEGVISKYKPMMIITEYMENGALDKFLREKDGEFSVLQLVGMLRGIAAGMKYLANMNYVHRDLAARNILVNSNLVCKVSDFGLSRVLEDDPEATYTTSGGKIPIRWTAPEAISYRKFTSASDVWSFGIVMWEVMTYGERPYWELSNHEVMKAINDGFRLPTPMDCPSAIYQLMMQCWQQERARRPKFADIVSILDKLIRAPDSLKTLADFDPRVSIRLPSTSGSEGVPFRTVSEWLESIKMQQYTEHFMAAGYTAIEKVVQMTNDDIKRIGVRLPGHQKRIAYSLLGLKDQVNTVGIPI
Method: as §1

[13] = test system: 216 other kinases; assay: Kinase Profiler Service Assay, selectivity panel; type: biochemical; conditions: at 300 nM
Method: as §1

T1 sequence (P07333 20-972): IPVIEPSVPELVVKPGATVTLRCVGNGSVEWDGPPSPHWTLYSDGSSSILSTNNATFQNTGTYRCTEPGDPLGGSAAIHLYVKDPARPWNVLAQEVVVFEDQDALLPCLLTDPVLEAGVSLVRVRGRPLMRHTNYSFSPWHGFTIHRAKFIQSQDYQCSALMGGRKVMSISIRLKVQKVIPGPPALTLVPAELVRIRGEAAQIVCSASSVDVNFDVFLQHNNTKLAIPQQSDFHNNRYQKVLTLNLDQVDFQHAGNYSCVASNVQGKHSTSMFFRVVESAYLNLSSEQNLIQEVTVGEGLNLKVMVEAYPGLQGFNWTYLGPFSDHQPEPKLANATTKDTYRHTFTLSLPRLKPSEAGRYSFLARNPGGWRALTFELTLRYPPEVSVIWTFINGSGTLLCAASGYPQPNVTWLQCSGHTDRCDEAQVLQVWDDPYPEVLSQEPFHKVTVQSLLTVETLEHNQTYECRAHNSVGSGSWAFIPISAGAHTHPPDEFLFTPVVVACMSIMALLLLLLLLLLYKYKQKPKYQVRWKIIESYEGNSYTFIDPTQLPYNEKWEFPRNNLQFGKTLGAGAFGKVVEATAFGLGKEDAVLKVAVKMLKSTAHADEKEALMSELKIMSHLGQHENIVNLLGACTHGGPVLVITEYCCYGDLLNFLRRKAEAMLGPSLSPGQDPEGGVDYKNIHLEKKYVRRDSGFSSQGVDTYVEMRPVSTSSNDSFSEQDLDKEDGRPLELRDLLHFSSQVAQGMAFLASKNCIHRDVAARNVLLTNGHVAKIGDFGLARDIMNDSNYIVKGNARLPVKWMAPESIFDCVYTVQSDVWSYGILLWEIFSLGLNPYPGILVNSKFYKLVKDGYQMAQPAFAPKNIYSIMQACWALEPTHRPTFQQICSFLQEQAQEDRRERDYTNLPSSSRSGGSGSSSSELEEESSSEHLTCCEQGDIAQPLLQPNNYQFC

Row | SMILES | inhibition of cFMS [1] | inhibition of Aurora-B [2] | inhibition of Flt3 [3] | inhibition of KDR [4] | inhibition of PDGFR-b [5] | inhibition of FGFR1 [6] | inhibition of Tie2 [7] | inhibition of FLT4 [8] | IC50 [9] [nM] | EC50 [10] [nM] | EC50 [11] [nM] | inhibition of EphA2 [12] | inhibition of 216 other kinases (selectivity) [13] [%]
1 | Nc1ncnc2c3c(n(-c4ccc(NC(=O)Nc5ccc(F)cc5)cc4)c12)CCC3 [Compound 14] | inhibits | inhibits | inhibits | inhibits | inhibits | inhibits | inhibits | inhibits | 100 to 1000 | < 100 | < 100 |  | 
2 | Nc1ncnc2c3c(n(-c4ccc(NC(=O)Nc5cc(C(F)(F)F)ccc5F)cc4)c12)CCC3 [Compound 44] | inhibits |  | inhibits | inhibits |  | inhibits |  |  | 100 to 1000 | 100 to 1000 | < 100 | inhibits | ≤ 20
